Source: PubChem BioAssay AID1963424 (Molecular Pharmacology Branch, DTP, NCI, 2024)

Tested on: 327498-153-R-J2-PDC complex spheroid growth, % test/control
Experiment: Anticancer human tumor 327498-153-R-J2-PDC patient-derived uterine carcinosarcoma cell line growth inhibition [Asc]
Settings: for viability, T/C: stronger effect = lower value
Experimental: Multicellular complex tumor spheroid response to apoptosis pathway targeting inhibitors Alrizomadlin, Pelcitoclax, and Dasminapant in combination with a variety of drugs and investigational agents in selected tumor cell lines
The MDM2 inhibitor alrizomadlin, the Bcl-2/Bcl-xL inhibitor pelcitoclax, and the IAPs inhibitor dasminapant were evaluated both individually and in combination with standard of care and investigational anticancer small molecules within a complex spheroid model of solid tumors. . Complex spheroids include a stromal component modeled by human endothelial cells (HUVEC) and fibroblasts modeled by human mesenchymal stem cells (MSCs). The concentration ranges selected for each drug and investigational agent were based upon clinically achievable concentrations if the clinical Cmax of the agent was known.
Compounds. The drugs and investigational agents: alrizomadlin (APG-115; NSC831270), pelcitoclax (APG-1252; NSC835773), dasminapant (APG-1387;NSC834197), TAK-243 (NSC785004), copanlisib (NSC809693), olaparib (NSC753686), talazoparib (NSC767125), cobimetinib (NSC 768068), eltanexor (KPT-8602, NSC 794443), abemaciclib (NSC 768073), sotorasib (NSC818433), adagrasib (NSC 831453), MRTX-1133 (NSC 836407), Iadademestat (ORY1001, NSC 806812), and RMC-4630 (NSC839698), were obtained from the NCI Developmental Therapeutics Program Chemical Repository. The FDA-approved anticancer drug set is available from the Developmental Therapeutics Program at https://dtp.cancer.gov/organization/dscb/obtaining/available plates.htm. […] The stock solutions were prepared in dimethyl sulfoxide (DMSO, Sigma-Aldrich, St. Louis, MO, cat. D2650) at 800-fold the tested concentration and stored at -70 degrees C prior to their use. All drugs and investigational agents were tested over a range starting from a high concentration at or near the clinical Cmax and decreasing in half-log increments. If the clinical Cmax for an agent had not been determined, the highest concentration tested was 10 microM.
The patient-derived cancer (PDC) cell lines include five colon adenocarcinomas: 186277-243-T-J2-PDC, 616215-338-R-J1-PDC, 439559-082-T-J2-PDC, 463943-066-T-J2-PDC, and 519858-162-T-J1-PDC; three pancreatic carcinomas: 323965-272-R-J2-PDC, 521955-158-R6-J3-PDC, and 521955-158-R2-J5-PDC; two uterine sarcomas: 327498-152-R-J2-PDC and 993429-296-R-J1-PDC; two rhabdomyosarcomas: 755483-174-R-J1-PDC and 772245-204-R-J1-PDC; two soft tissue sarcomas: 126254-015-R-J1-PDC and 494315-158-R-J1-PDC; two malignant fibrous histiocytomas: 317291-083-R-J1-PDC and 596521-263-R-J1-PDC; two breast carcinomas: 171881-019-R-J1-PDC and 885512-296-R-J2-PDC; and one ovarian carcinoma: 6556581-035-R-J-PDC were obtained from the NCI PDMR, (https://pdmr.cancer.gov). The established cell lines HSSY-2 synovial sarcoma (RRID:CVCL 8719), SYO-1 synovial sarcoma (RRID:CVCL_7146), MPNST malignant peripheral neural sheath tumor were obtained from the Sloan Kettering Institute. The following established cell lines were purchased from the American Type Culture Collection (ATCC, Manassas, VA), Sor the received from the NCI repository:, PANC-1 pancreatic carcinoma (CRL-1469, RRID:CVCL_0480), OVCAR-5 ovarian carcinoma (RRID:CVCL_1628), OVCAR-8 ovarian carcinoma (RRID:CVCL_1629), , MCF-7 breast carcinoma (CRL-12584, RRID:CVCL_0031), MDA-MB-231 breast carcinoma (CRL-12532, RRID:CVCL_0062), NCI-H1876 small cell lung carcinoma (CRL-5902, RRID:CVCL_1503), NCI-H510A small cell lung carcinoma (HTB-184, RRID:CVCL_1565), NCI-H1417 (CRL-5869, RRID:CVCL_1469), and NCI-H196 small cell lung carcinoma (CRL-5823, RRID:CVCL_1509). Dr. Peter Houghton (Greehey Children's Cancer Research Institute, University of Texas Health Science Center, San Antonio, TX) provided Rh-18 rhabdomyosarcoma (RRID:CVCL_1659). Pooled donor human umbilical vein endothelial cells (HUVEC, Lonza, cat. CC-2519) and human mesenchymal stem cells (hMSC, Lonza, cat. PT-2501) were purchased from Lonza (Walkersville, MD).
Cell Culture. […]
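Further: spheroids exposed to compound for 7 days after 3 days of growth.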
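Wherever viability, T/C is given: 100% = DMSO vehicle control wells.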

`Cc1c(S(C)(=O)=O)c(-c2cc(F)cc(N3CCN(c4ccc(NS(=O)(=O)c5ccc(NC(CCN6CCC(C(=O)OCCCP(=O)(O)O)CC6)CSc6ccccc6)c(S(=O)(=O)C(F)(F)F)c5)cc4)CC3)c2)c(-c2ccc(Cl)cc2)n1C(C)C` (stereo unspecified) was tested, and the viability, T/C (compound 0.1 µM) was 94.6% [middle of 14 runs], the viability, T/C (compound 0.316 µM) was 96.1% [middle of 14 runs] and the viability, T/C (compound 1 µM) was 94.4% [middle of 14 runs]. For the same compound, the viability, T/C (compound 3.16 µM) was 90.3% [middle of 14 runs], the viability, T/C (compound 10 µM) was 166% [middle of 14 runs] and the IC50 (compound alone, run of 09/27/2022) was > 10 µM.

With `O=C(c1cc(Cc2n[nH]c(=O)c3ccccc23)ccc1F)N1CCN(C(=O)C2CC2)CC1` + CNC(C)C(=O)NC1CN(S(=O)(=O)c2cccc(S(=O)(=O)N3CCC4CCC(C(=O)NC(c5ccccc5)c5ccccc5)N4C(=O)C(NC(=O)C(C)NC)C3)c2)CCC2CCC(C(=O)NC(c3ccccc3)c3ccccc3)N2C1=O the IC50 (curve of first compound, second compound 0.01 µM) was 4.52 µM, the IC50 (curve of first compound, second compound 0.0316 µM) was 3.83 µM and the IC50 (curve of first compound, second compound 0.1 µM) was 3.78 µM. It also gave an IC50 (curve of first compound, second compound 0.316 µM) of 4.07 µM, an IC50 (curve of first compound, second compound 1 µM) of 3.71 µM and a viability, T/C (second compound 0.01 µM, first compound 0.0316 µM) of 98.8%. The viability, T/C (second compound 0.01 µM, first compound 0.1 µM) was 105%, the viability, T/C (second compound 0.01 µM, first compound 0.316 µM) was 102% and the viability, T/C (second compound 0.01 µM, first compound 1 µM) was 99.2%. For the same compound, the viability, T/C (second compound 0.01 µM, first compound 3.16 µM) was 67.9%, the viability, T/C (second compound 0.01 µM, first compound 10 µM) was 11.3% and the viability, T/C (second compound 0.0316 µM, first compound 0.0316 µM) was 102%. For the same compound, the viability, T/C (second compound 0.0316 µM, first compound 0.1 µM) was 100%, the viability, T/C (second compound 0.0316 µM, first compound 0.316 µM) was 108% and the viability, T/C (second compound 0.0316 µM, first compound 1 µM) was 88.5%. It also gave a viability, T/C (second compound 0.0316 µM, first compound 3.16 µM) of 58.7%, a viability, T/C (second compound 0.0316 µM, first compound 10 µM) of 9.57% and a viability, T/C (second compound 0.1 µM, first compound 0.0316 µM) of 97.5%. For the same compound, the viability, T/C (second compound 0.1 µM, first compound 0.1 µM) was 99.9%, the viability, T/C (second compound 0.1 µM, first compound 0.316 µM) was 102% and the viability, T/C (second compound 0.1 µM, first compound 1 µM) was 89.8%. The viability, T/C (second compound 0.1 µM, first compound 3.16 µM) was 57.6%, the viability, T/C (second compound 0.1 µM, first compound 10 µM) was 9.51% and the viability, T/C (second compound 0.316 µM, first compound 0.0316 µM) was 104%. For the same compound, the viability, T/C (second compound 0.316 µM, first compound 0.1 µM) was 107%, the viability, T/C (second compound 0.316 µM, first compound 0.316 µM) was 94.5% and the viability, T/C (second compound 0.316 µM, first compound 1 µM) was 91.4%. It also gave a viability, T/C (second compound 0.316 µM, first compound 3.16 µM) of 60.3%, a viability, T/C (second compound 0.316 µM, first compound 10 µM) of 11.1% and a viability, T/C (second compound 1 µM, first compound 0.0316 µM) of 96.8%. It also gave a viability, T/C (second compound 1 µM, first compound 0.1 µM) of 100%, a viability, T/C (second compound 1 µM, first compound 0.316 µM) of 94.5% and a viability, T/C (second compound 1 µM, first compound 1 µM) of 90.3%. For the same compound, the viability, T/C (second compound 1 µM, first compound 3.16 µM) was 56.4% and the viability, T/C (second compound 1 µM, first compound 10 µM) was 9.85%.
